We go through 31 compounds from patent publication US6448256B1, “Antibiotic prodrugs” (University of Massachusetts, priority 1999, dated 2002).

≈ marks a conversion by molar mass, not a printed value.

This test concerns B. subtilis. The test is described as follows: Antibacterial activity of crude compounds made by small scale synthesis. Conditions: crude reaction mixtures dissolved in DMSO, assayed directly. Type of test: cell-based. As for the experimental part: 6-Anilinouracils were synthesized using small scale synthetic methods. One milligram quantities of 3-(3-methoxypropyl)-6-chlorouracil were heated with 42 substituted anilines in micro-test tubes at 130° C. for 20 minutes. The reaction mixtures were dissolved in DMSO and assayed directly for antibacterial activity.
As to `COCCCn1c(=O)cc(Nc2ccc(C)c(I)c2)[nH]c1=O` [Compound 3-1-4-Me], the “MIC B. subtilis” value came out at 1.57 µg/mL (≈ 3.78 µM).
To `COCCCn1c(=O)cc(Nc2ccc(C)c(C)c2)[nH]c1=O` [3,4-diMe] belongs 6.26 µg/mL (≈ 20.6 µM); to `COCCCn1c(=O)cc(Nc2cccc(C#N)c2)[nH]c1=O` [Compound 3-CN], more than 100 µg/mL; to `COCCCn1c(=O)cc(Nc2ccc(C)c(CO)c2)[nH]c1=O` [Compound 3-CH2OH-4-Me], more than 100 µg/mL.
On to `COCCCn1c(=O)cc(Nc2cc(F)c(F)c(F)c2)[nH]c1=O` [3,4,5-triF], for which the “MIC B. subtilis” value is more than 100 µg/mL.
The figure for `COCCCn1c(=O)cc(Nc2cccc(C)c2)[nH]c1=O` [Compound 3-Me] is 100 µg/mL (≈ 346 µM).
On to `COCCCn1c(=O)cc(Nc2ccc(F)cc2)[nH]c1=O` [Compound 4-F], for which the “MIC B. subtilis” value was more than 100 µg/mL.
The figure for `COCCCn1c(=O)cc(Nc2ccc(OC)c(Cl)c2)[nH]c1=O` [Compound 3-Cl-4-OMe] is 50 µg/mL (≈ 147 µM).
To `COCCCn1c(=O)cc(Nc2cccc(Br)c2)[nH]c1=O` [Compound 3-Br] belongs more than 100 µg/mL; to `COCCCn1c(=O)cc(Nc2ccc(F)c(Cl)c2)[nH]c1=O` [Compound 3-Cl-4-F], 50 µg/mL (≈ 153 µM).
To `COCCCn1c(=O)cc(Nc2cc(C)cc(C)c2)[nH]c1=O` [3,5-diMe] belongs 50 µg/mL (≈ 165 µM); to `COCCCn1c(=O)cc(Nc2ccc(OC)c(OC)c2)[nH]c1=O` [3,4-diOMe], more than 100 µg/mL.
`COCCCn1c(=O)cc(Nc2ccc(C#N)cc2)[nH]c1=O` [Compound 4-CN]: the “MIC B. subtilis” value was more than 100 µg/mL.
The figure for `CCCc1ccc(Nc2cc(=O)n(CCCOC)c(=O)[nH]2)cc1` [Compound 4-Pr] is more than 100 µg/mL; for `CCc1ccc(Nc2cc(=O)n(CCCOC)c(=O)[nH]2)cc1` [Compound 4-Et] it is 50 µg/mL (≈ 165 µM).
To `COCCCn1c(=O)cc(Nc2ccc(CC(C)C)cc2)[nH]c1=O` [Compound 4-iBU] belongs more than 100 µg/mL; to `COCCCn1c(=O)cc(Nc2ccc(Cl)c(Cl)c2)[nH]c1=O` [3,4-diCl], 6.25 µg/mL (≈ 18.2 µM); to `COCCCn1c(=O)cc(Nc2cccc(C(C)O)c2)[nH]c1=O` (stereo not shown) [3-CH(OH)CH3], more than 100 µg/mL.
Regarding `COCCCn1c(=O)cc(Nc2cccc([N+](=O)[O-])c2)[nH]c1=O` [Compound 3-NO2], the “MIC B. subtilis” value is more than 100 µg/mL.
On to `COCCCn1c(=O)cc(Nc2ccc(O)cc2)[nH]c1=O` [Compound 4-OH], for which the “MIC B. subtilis” value is more than 100 µg/mL.
`COCCCn1c(=O)cc(Nc2cccc(F)c2)[nH]c1=O` [Compound 3-F]: the “MIC B. subtilis” value is more than 100 µg/mL.
The figure for `COCCCn1c(=O)cc(Nc2ccc(Br)c(C(F)(F)F)c2)[nH]c1=O` [Compound 3-CF3-4-Br] is more than 100 µg/mL; for `COCCCn1c(=O)cc(Nc2ccc(F)c(F)c2)[nH]c1=O` [3,4-diF] it is more than 100 µg/mL.
`COCCCn1c(=O)cc(Nc2cccc(OC)c2)[nH]c1=O` [Compound 3-OMe]: the “MIC B. subtilis” value is more than 100 µg/mL.
To `COCCCn1c(=O)cc(Nc2ccc(C(C)C)cc2)[nH]c1=O` [Compound 4-iPR] belongs more than 100 µg/mL; to `COCCCn1c(=O)cc(Nc2ccc(Cl)cc2)[nH]c1=O` [Compound 4-Cl], 100 µg/mL (≈ 323 µM).
Take `COCCCn1c(=O)cc(Nc2ccc(C)cc2)[nH]c1=O` [Compound 4-Me]: the “MIC B. subtilis” value turned out to be 50 µg/mL (≈ 173 µM).
To `COCCCn1c(=O)cc(Nc2cccc(I)c2)[nH]c1=O` [Compound 3-I] belongs 25 µg/mL (≈ 62.3 µM); to `COCCCn1c(=O)cc(Nc2cc(Cl)cc(Cl)c2)[nH]c1=O` [3,5-diCl], more than 100 µg/mL; to `COCCCn1c(=O)cc(Nc2ccc(C)c(Cl)c2)[nH]c1=O` [Compound 3-Cl-4-Me], 3.13 µg/mL (≈ 9.67 µM).
The figure for `COCCCn1c(=O)cc(Nc2ccccc2)[nH]c1=O` [—] is more than 100 µg/mL.
